Reference: the kinase profiling compilation of Christmann-Franck et al. (2016)

Legend:
SGK223 (human) = SGK223 (human) (UniProt Q86YV5)
ATM (human) = ATM (human) (UniProt Q13315)
CDK10 (human) = CDK10 (human) (UniProt Q15131)
PRKDC (human) = PRKDC (human) (UniProt P78527)
ARAF (human) = ARAF (human) (UniProt P10398)
TESK2 (human) = TESK2 (human) (UniProt Q96S53)
PIK3C2B (human) = PIK3C2B (human) (UniProt O00750)
LRRK2 (human) = LRRK2 (human) (UniProt Q5S007)
CDKL2 (human) = CDKL2 (human) (UniProt Q92772)

ATM (human), sequence (Q13315 whole entry, looked up): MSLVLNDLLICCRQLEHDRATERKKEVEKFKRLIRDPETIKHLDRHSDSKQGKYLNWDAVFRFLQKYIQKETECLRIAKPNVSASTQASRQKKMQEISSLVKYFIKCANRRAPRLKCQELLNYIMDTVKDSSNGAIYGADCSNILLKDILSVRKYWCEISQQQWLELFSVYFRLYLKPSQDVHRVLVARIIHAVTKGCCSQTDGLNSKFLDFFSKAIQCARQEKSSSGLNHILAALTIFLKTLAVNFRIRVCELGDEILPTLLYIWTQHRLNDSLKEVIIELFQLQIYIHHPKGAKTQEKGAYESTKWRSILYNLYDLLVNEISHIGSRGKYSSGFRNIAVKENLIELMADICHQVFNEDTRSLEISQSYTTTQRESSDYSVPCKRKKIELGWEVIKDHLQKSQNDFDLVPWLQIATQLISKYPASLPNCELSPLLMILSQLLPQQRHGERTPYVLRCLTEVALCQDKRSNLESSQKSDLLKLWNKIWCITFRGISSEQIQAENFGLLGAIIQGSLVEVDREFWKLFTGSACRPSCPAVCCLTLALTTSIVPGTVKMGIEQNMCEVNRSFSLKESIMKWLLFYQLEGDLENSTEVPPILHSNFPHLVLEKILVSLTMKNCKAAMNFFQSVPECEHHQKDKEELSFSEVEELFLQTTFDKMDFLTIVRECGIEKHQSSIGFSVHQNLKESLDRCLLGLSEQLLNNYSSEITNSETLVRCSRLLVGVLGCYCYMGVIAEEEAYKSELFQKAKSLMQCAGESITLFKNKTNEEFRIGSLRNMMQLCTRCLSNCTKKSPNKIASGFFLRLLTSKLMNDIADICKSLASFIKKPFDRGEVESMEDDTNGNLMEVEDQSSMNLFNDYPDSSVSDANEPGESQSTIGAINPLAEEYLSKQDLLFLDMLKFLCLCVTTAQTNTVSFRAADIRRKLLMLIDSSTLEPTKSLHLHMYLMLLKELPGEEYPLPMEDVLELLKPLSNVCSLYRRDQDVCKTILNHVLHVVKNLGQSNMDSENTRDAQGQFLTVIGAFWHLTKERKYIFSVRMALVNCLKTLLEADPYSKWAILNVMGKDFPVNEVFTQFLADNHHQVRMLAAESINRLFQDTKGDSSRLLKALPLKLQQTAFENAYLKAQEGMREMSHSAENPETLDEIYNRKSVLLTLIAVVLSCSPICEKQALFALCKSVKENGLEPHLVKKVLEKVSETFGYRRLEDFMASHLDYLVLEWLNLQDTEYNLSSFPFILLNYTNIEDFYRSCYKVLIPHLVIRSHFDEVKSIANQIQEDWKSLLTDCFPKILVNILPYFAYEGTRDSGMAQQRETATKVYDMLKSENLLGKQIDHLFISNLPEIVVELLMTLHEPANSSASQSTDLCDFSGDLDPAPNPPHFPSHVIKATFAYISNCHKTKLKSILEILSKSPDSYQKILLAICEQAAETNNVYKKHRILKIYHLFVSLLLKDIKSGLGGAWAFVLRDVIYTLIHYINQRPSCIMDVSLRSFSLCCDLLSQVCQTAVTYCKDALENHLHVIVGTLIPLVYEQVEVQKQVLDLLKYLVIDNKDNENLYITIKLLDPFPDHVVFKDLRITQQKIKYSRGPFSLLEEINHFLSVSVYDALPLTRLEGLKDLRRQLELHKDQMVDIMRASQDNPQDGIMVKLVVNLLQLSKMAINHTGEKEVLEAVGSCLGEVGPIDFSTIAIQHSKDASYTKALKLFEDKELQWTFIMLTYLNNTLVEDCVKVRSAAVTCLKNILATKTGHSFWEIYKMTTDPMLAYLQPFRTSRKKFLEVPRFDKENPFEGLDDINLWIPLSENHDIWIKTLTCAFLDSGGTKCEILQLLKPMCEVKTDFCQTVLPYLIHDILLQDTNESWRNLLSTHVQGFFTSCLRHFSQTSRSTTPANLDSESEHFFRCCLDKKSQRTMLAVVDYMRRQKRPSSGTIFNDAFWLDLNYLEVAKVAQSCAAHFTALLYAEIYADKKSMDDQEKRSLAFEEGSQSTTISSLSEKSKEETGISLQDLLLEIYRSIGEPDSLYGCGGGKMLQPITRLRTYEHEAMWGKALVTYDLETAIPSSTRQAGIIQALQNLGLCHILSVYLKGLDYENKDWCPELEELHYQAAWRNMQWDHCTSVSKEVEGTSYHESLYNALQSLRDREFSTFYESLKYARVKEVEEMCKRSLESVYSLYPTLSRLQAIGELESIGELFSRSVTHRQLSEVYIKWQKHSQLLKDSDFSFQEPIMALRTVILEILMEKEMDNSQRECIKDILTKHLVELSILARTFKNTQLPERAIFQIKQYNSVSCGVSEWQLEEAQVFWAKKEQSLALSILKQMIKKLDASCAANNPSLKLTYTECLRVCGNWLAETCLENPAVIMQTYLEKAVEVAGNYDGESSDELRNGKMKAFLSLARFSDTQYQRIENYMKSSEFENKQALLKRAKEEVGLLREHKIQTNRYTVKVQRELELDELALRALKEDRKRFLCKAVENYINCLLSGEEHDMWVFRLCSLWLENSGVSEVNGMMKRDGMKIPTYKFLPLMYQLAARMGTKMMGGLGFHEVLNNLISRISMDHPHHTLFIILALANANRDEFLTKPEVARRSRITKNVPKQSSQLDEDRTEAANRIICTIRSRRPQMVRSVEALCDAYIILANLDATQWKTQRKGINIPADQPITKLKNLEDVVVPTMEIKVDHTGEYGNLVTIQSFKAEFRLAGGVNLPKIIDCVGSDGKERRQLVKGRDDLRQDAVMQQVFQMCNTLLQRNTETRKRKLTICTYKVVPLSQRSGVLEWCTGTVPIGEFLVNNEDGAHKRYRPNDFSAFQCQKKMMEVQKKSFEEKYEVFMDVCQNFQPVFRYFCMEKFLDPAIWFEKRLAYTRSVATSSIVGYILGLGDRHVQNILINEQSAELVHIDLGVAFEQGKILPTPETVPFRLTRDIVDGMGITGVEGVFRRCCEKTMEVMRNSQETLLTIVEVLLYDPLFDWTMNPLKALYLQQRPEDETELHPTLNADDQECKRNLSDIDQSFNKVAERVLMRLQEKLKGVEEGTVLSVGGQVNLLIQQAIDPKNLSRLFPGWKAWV
SGK223 (human), sequence (Q86YV5 whole entry, looked up): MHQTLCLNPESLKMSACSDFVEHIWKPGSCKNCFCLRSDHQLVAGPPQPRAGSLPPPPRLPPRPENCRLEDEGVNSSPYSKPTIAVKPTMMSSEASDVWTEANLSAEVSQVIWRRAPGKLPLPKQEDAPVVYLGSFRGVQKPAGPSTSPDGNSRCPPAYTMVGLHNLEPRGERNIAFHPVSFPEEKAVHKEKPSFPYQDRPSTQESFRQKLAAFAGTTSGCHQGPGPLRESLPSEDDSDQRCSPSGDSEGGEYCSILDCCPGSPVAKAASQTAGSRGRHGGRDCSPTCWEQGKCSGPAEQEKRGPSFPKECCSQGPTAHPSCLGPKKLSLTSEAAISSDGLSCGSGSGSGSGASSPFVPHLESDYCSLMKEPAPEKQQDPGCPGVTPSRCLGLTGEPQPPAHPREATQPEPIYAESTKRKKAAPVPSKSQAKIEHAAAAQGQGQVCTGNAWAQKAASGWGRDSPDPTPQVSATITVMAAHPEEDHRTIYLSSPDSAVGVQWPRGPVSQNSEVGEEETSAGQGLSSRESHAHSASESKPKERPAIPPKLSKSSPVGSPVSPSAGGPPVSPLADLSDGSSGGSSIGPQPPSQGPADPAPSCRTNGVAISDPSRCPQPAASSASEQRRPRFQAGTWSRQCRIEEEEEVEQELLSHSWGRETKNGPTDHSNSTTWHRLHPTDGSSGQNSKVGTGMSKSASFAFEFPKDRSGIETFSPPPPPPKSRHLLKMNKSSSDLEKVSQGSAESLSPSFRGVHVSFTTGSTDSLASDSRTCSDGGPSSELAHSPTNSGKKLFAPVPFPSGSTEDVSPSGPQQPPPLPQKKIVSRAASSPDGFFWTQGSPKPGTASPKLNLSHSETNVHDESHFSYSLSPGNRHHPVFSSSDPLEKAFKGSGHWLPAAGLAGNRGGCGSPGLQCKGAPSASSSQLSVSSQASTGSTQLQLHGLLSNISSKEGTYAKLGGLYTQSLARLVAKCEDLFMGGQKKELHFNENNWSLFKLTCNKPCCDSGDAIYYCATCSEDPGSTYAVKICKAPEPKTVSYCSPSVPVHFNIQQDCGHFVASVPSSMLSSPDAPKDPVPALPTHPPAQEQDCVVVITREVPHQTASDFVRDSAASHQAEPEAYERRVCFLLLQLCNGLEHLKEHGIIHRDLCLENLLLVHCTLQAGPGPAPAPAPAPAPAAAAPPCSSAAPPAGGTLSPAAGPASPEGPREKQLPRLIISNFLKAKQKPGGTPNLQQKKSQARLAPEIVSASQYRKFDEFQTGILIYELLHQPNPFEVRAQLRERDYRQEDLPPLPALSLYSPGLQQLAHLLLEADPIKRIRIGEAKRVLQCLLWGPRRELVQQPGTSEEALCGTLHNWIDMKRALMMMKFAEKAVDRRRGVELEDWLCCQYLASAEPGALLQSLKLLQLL
TESK2 (human), sequence (Q96S53 whole entry, looked up): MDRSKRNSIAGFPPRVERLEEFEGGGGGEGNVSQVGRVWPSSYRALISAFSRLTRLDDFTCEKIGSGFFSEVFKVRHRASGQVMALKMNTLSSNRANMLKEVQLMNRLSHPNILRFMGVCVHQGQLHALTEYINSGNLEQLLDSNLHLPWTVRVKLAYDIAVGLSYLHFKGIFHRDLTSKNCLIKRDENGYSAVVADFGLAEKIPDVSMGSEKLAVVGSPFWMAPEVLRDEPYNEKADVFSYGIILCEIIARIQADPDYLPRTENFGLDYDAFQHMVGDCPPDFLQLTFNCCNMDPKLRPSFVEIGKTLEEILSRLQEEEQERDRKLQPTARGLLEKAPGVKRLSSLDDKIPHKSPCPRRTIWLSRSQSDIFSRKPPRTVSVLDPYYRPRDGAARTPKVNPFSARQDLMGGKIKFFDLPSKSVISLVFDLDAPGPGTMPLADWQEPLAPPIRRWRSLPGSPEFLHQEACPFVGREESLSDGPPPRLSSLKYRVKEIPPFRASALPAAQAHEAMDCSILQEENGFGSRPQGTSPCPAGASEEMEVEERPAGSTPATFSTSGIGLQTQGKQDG

IC50 (ATM (human))	IC50 (PRKDC (human))	IC50 (TESK2 (human))	IC50 (PIK3C2B (human))	IC50 (LRRK2 (human))	IC50 (CDKL2 (human))	SMILES	IC50 (SGK223 (human))	IC50 (CDK10 (human))	IC50 (ARAF (human))
> 10 µM	> 10 µM	> 10 µM	–	–	–	CC(C)(C)c1cnc(CSc2cnc(NC(=O)C3CCNCC3)s2)o1	–	–	–
> 10 µM	> 10 µM	–	> 10 µM	> 10 µM	> 10 µM	CC[C@@H](CO)Nc1nc(NCc2ccccc2)c2ncn(C(C)C)c2n1	> 10 µM	–	–

SMILES	IC50 (ATM (human))	IC50 (PRKDC (human))	IC50 (TESK2 (human))	IC50 (PIK3C2B (human))	IC50 (LRRK2 (human))	IC50 (CDKL2 (human))	IC50 (SGK223 (human))	IC50 (CDK10 (human))	IC50 (ARAF (human))
CN[C@@H]1C[C@H]2O[C@@](C)([C@@H]1OC)n1c3ccccc3c3c4c(c5c6ccccc6n2c5c31)C(=O)NC4	> 10 µM	> 10 µM	–	–	–	–	5.05 µM	870 nM	> 10 µM
